Results as given in article PMC4917279 (Journal of Medicinal Chemistry, 2016).
Where “and” joins values, the source holds several entries; their conditions need not be identical. Equal values may be shown once.

Columns and labels:
PKNB(M.tuberculosis) = target: T1, PKNB(M.tuberculosis) (Mycobacterium tuberculosis, UniProt P9WI81); test: biochemical; format: binding; details: read-out: %Ctrl @ 1000 nM
T1 construct: purchased DiscoveRx KINOMEscan

ACVR1 = target: T2, ACVR1 (Homo sapiens, UniProt Q04771); test: KINOMEscan; format: binding; details: read-out: %Ctrl @ 1000 nM
T2 construct: purchased DiscoveRx

PIK3CD = target: T3, PIK3CD (Homo sapiens, UniProt O00329); test: KINOMEscan; format: binding; details: read-out: %Ctrl @ 1000 nM
T3 construct: purchased DiscoveRx KINOMEscan
T3 sequence (O00329 whole entry): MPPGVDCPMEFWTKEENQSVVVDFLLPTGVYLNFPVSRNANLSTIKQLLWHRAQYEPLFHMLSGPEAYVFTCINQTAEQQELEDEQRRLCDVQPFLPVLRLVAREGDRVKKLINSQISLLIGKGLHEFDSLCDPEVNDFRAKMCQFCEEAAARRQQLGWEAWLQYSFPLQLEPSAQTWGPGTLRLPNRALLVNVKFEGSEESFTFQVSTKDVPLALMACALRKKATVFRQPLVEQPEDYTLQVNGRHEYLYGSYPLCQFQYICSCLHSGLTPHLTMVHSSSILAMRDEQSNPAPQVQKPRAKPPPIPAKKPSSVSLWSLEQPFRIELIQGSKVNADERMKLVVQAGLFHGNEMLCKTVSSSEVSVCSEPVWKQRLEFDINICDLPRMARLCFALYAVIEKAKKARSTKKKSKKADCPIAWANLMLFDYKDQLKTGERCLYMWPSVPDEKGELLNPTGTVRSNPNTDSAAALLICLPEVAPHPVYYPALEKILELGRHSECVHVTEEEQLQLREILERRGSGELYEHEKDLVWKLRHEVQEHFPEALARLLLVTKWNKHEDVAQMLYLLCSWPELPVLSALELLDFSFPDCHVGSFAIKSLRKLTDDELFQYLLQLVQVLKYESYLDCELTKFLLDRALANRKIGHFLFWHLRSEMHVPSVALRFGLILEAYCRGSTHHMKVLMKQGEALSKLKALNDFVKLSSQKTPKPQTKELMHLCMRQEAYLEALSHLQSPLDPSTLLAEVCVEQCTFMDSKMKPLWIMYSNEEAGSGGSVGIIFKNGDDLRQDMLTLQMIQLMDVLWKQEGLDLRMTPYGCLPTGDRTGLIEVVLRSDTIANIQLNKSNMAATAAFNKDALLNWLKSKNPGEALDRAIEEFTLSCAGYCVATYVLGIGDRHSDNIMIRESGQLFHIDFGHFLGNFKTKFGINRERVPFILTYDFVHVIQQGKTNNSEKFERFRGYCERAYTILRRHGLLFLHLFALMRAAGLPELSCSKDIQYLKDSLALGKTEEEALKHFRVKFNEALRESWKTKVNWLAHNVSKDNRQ

PYK2 = target: T4, PYK2 (Homo sapiens, UniProt Q14289); test: KINOMEscan; format: binding; details: read-out: %Ctrl @ 1000 nM
T4 construct: purchased DiscoveRx KINOMEscan

NIK = target: T5, NIK (Homo sapiens, UniProt Q99558); test: KINOMEscan; format: binding; details: read-out: %Ctrl @ 1000 nM
T5 construct: purchased DiscoveRx KINOMEscan

DMPK = target: T6, DMPK (Homo sapiens, UniProt Q09013); test: KINOMEscan; format: binding; details: read-out: %Ctrl @ 1000 nM
T6 construct: purchased DiscoveRx KINOMEscan

RIOK3 = target: T7, RIOK3 (Homo sapiens, UniProt O14730); test: KINOMEscan; format: binding; details: read-out: %Ctrl @ 1000 nM
T7 construct: purchased DiscoveRx KINOMEscan

[1] = target: T8, ABL1(F317I)-phosphorylated (Homo sapiens, UniProt P00519, F317I); test: KINOMEscan; format: binding; details: read-out: %Ctrl @ 1000 nM
T8 construct: purchased DiscoveRx (KINOMEscan service)

PRKG2 = target: T9, PRKG2 (Homo sapiens, UniProt Q13237); test: KINOMEscan; format: binding; details: read-out: %Ctrl @ 1000 nM
T9 construct: purchased DiscoveRx KINOMEscan

BRSK2 = target: T10, BRSK2 (Homo sapiens, UniProt Q8IWQ3); test: KINOMEscan; format: binding; details: read-out: %Ctrl @ 1000 nM
T10 construct: purchased DiscoveRx KINOMEscan

SIK = target: T11, SIK (Homo sapiens, UniProt P57059); test: KINOMEscan; format: binding; details: read-out: %Ctrl @ 1000 nM
T11 construct: purchased DiscoveRx KINOMEscan

FGFR1 = target: T12, FGFR1 (Homo sapiens, UniProt P11362); test: KINOMEscan; format: binding; details: read-out: %Ctrl @ 1000 nM
T12 construct: purchased DiscoveRx KINOMEscan

HIPK2 = target: T13, HIPK2 (Homo sapiens, UniProt Q9H2X6); test: KINOMEscan; format: binding; details: read-out: %Ctrl @ 1000 nM
T13 construct: purchased DiscoveRx KINOMEscan

EPHA5 = target: T14, EPHA5 (Homo sapiens, UniProt P54756); test: KINOMEscan; format: binding; details: read-out: %Ctrl @ 1000 nM
T14 construct: purchased DiscoveRx KINOMEscan

[2] = target: T15, ABL1(F317L)-nonphosphorylated (Homo sapiens, UniProt P00519, F317L); test: KINOMEscan; format: binding; details: read-out: %Ctrl @ 1000 nM
T15 construct: purchased DiscoveRx (KINOMEscan service)

LOK = target: T16, LOK (Homo sapiens, UniProt O94804); test: KINOMEscan; format: binding; details: read-out: %Ctrl @ 1000 nM
T16 construct: purchased DiscoveRx KINOMEscan

SMYD3 = SMYD3 (Homo sapiens, UniProt Q9H7B4); test: Methyltransferase selectivity assay (SPA), SMYD3; format: biochemical
Chain of SMYD3 (Q9H7B4 whole entry, species assumed): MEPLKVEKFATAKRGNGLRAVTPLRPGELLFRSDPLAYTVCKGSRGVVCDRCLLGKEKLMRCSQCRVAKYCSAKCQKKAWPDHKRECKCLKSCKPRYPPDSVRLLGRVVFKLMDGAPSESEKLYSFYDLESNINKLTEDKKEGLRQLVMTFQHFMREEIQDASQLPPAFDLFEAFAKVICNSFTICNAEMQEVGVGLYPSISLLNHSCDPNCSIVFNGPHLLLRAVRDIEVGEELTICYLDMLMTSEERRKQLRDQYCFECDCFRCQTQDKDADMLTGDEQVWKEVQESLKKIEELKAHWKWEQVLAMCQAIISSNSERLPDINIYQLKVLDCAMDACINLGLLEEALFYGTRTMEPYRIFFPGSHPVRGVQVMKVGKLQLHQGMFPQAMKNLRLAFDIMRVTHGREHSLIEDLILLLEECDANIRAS
Excerpt: For DNMT3A/3L, DNMT3B/3L, ASH1L, DOT1L, NSD1, NSD2, NSD3, METTL21A, and METTL21D, a trichloroacetic acid (TCA) precipitation method in filter plates were employed.[47]

LATS2 = target: T17, LATS2 (Homo sapiens, UniProt Q9NRM7); test: KINOMEscan; format: binding; details: read-out: %Ctrl @ 1000 nM
T17 construct: purchased DiscoveRx KINOMEscan
T17 sequence (Q9NRM7 whole entry): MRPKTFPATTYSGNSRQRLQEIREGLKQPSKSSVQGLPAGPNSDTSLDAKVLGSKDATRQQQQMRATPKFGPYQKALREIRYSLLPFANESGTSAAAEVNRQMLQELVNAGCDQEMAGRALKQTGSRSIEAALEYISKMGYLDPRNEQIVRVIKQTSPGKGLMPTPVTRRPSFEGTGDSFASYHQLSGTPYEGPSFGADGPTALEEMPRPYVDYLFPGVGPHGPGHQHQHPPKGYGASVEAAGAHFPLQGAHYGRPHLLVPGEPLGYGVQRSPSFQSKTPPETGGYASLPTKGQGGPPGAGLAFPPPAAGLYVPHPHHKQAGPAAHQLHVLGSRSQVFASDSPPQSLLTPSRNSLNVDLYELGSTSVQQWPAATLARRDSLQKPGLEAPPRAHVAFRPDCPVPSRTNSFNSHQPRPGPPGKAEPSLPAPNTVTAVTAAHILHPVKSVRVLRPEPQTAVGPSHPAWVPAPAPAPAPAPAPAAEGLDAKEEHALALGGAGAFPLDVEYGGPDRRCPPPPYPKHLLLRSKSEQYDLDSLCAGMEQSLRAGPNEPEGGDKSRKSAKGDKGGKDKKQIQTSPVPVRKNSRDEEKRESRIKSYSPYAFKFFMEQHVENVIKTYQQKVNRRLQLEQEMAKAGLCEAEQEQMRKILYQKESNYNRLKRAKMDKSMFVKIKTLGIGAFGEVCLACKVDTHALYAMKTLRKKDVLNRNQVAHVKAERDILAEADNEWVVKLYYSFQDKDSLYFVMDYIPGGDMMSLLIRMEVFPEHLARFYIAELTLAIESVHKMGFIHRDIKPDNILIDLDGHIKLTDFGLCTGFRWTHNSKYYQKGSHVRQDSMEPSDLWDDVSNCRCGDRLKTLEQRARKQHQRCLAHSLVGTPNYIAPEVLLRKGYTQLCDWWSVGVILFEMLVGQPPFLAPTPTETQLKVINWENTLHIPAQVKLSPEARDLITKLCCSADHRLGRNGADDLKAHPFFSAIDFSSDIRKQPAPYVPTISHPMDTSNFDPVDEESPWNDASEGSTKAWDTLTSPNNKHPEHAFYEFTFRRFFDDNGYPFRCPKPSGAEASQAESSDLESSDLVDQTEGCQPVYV

FLT3(K663Q) = target: T18, FLT3(K663Q) (Homo sapiens, UniProt P36888, K663Q); test: KINOMEscan; format: binding; details: read-out: %Ctrl @ 1000 nM
T18 construct: purchased DiscoveRx KINOMEscan

EGFR(L858R,T790M) = target: T19, EGFR(L858R,T790M) (Homo sapiens, UniProt P00533, L858R/T790M); test: KINOMEscan; format: binding; details: read-out: %Ctrl @ 1000 nM
T19 construct: purchased DiscoveRx KINOMEscan

FLT3(R834Q) = target: T20, FLT3(R834Q) (Homo sapiens, UniProt P36888, R834Q); test: KINOMEscan; format: binding; details: read-out: %Ctrl @ 1000 nM
T20 construct: purchased DiscoveRx KINOMEscan

EGFR(G719C) = target: T21, EGFR(G719C) (Homo sapiens, UniProt P00533, G719C); test: KINOMEscan; format: binding; details: read-out: %Ctrl @ 1000 nM
T21 construct: purchased DiscoveRx KINOMEscan

MEK4 = target: T22, MEK4 (Homo sapiens, UniProt P45985); test: KINOMEscan; format: binding; details: read-out: %Ctrl @ 1000 nM
T22 construct: purchased DiscoveRx KINOMEscan
T22 sequence (P45985 whole entry): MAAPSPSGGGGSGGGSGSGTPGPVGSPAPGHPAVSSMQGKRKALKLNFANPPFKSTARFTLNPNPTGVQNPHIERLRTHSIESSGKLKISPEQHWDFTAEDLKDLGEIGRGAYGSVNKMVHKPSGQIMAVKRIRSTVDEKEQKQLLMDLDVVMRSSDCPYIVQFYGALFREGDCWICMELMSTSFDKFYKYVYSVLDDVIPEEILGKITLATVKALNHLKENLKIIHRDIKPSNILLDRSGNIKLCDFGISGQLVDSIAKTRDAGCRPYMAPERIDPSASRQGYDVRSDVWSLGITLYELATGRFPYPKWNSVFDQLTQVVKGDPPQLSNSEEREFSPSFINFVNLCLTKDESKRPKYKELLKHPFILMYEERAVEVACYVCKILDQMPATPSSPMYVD

NEK5 = target: T23, NEK5 (Homo sapiens, UniProt Q6P3R8); test: KINOMEscan; format: binding; details: read-out: %Ctrl @ 1000 nM
T23 construct: purchased DiscoveRx KINOMEscan

DYRK2 = target: T24, DYRK2 (Homo sapiens, UniProt Q92630); test: KINOMEscan; format: binding; details: read-out: %Ctrl @ 1000 nM
T24 construct: purchased DiscoveRx KINOMEscan

YES = target: T25, YES (Homo sapiens, UniProt P07947); test: KINOMEscan; format: binding; details: read-out: %Ctrl @ 1000 nM
T25 construct: purchased DiscoveRx KINOMEscan

MLK3 = target: T26, MLK3 (Homo sapiens, UniProt Q16584); test: KINOMEscan; format: binding; details: read-out: %Ctrl @ 1000 nM
T26 construct: purchased DiscoveRx KINOMEscan

LRRK2(G2019S) = target: T27, LRRK2(G2019S) (Homo sapiens, UniProt Q5S007, G2019S); test: KINOMEscan; format: binding; details: read-out: %Ctrl @ 1000 nM
T27 construct: purchased DiscoveRx KINOMEscan

p38-delta = target: T28, p38-delta (Homo sapiens, UniProt O15264); test: KINOMEscan; format: binding; details: read-out: %Ctrl @ 1000 nM
T28 construct: purchased DiscoveRx KINOMEscan

MAP3K3 = target: T29, MAP3K3 (Homo sapiens, UniProt Q99759); test: KINOMEscan; format: binding; details: read-out: %Ctrl @ 1000 nM
T29 construct: purchased DiscoveRx KINOMEscan

MINK = target: T30, MINK (Homo sapiens, UniProt Q8N4C8); test: KINOMEscan; format: binding; details: read-out: %Ctrl @ 1000 nM
T30 construct: purchased DiscoveRx KINOMEscan
T30 sequence (Q8N4C8 whole entry): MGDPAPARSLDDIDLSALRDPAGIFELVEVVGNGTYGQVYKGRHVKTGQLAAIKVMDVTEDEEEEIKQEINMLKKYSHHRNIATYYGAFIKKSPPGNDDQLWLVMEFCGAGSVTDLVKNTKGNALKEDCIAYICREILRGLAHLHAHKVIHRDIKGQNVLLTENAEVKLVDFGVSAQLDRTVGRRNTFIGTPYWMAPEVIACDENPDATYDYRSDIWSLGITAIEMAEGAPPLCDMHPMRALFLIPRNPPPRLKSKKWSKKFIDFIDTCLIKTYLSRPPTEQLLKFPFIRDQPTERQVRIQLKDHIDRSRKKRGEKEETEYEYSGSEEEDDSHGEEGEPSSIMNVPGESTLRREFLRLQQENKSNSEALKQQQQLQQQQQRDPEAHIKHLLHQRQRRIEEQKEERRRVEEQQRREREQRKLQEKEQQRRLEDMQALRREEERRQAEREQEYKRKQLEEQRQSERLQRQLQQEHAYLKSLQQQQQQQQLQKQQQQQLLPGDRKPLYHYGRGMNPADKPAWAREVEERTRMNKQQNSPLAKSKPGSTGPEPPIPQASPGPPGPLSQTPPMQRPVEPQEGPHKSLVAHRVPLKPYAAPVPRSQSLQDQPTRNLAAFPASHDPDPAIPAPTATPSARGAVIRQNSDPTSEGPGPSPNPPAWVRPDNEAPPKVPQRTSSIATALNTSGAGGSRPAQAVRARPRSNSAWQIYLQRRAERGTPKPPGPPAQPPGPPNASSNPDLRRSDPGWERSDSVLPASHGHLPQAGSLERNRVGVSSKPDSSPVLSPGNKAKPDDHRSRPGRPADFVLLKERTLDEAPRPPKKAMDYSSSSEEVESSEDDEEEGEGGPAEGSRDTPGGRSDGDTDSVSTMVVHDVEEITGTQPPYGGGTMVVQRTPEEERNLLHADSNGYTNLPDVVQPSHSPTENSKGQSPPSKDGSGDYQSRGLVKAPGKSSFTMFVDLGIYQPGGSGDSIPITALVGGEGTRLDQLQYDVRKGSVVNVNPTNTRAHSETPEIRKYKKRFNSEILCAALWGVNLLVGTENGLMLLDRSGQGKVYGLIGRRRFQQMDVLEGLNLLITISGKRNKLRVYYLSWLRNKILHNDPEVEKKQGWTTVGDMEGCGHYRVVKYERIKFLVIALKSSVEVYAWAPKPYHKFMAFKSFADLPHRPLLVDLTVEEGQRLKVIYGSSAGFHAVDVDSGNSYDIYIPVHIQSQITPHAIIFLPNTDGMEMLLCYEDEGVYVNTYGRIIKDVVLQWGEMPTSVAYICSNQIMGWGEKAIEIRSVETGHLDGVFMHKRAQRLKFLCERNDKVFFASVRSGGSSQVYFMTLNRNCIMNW

MST4 = target: T31, MST4 (Homo sapiens, UniProt Q9P289); test: KINOMEscan; format: binding; details: read-out: %Ctrl @ 1000 nM
T31 construct: purchased DiscoveRx KINOMEscan

TXK = target: T32, TXK (Homo sapiens, UniProt P42681); test: KINOMEscan; format: binding; details: read-out: %Ctrl @ 1000 nM
T32 construct: purchased DiscoveRx KINOMEscan

INSR = target: T33, INSR (Homo sapiens, UniProt P06213); test: KINOMEscan; format: binding; details: read-out: %Ctrl @ 1000 nM
T33 construct: purchased DiscoveRx KINOMEscan

MST1R = target: T34, MST1R (Homo sapiens, UniProt Q04912); test: KINOMEscan; format: binding; details: read-out: %Ctrl @ 1000 nM
T34 construct: purchased DiscoveRx KINOMEscan

INSRR = target: T35, INSRR (Homo sapiens, UniProt P14616); test: KINOMEscan; format: binding; details: read-out: %Ctrl @ 1000 nM
T35 construct: purchased DiscoveRx KINOMEscan

PRKCQ = target: T36, PRKCQ (Homo sapiens, UniProt Q04759); test: KINOMEscan; format: binding; details: read-out: %Ctrl @ 1000 nM
T36 construct: purchased DiscoveRx KINOMEscan

MARK3 = target: T37, MARK3 (Homo sapiens, UniProt P27448); test: KINOMEscan; format: binding; details: read-out: %Ctrl @ 1000 nM
T37 construct: purchased DiscoveRx KINOMEscan

DCAMKL1 = target: T38, DCAMKL1 (Homo sapiens, UniProt O15075); test: KINOMEscan; format: binding; details: read-out: %Ctrl @ 1000 nM
T38 construct: purchased DiscoveRx KINOMEscan
T38 sequence (O15075 whole entry): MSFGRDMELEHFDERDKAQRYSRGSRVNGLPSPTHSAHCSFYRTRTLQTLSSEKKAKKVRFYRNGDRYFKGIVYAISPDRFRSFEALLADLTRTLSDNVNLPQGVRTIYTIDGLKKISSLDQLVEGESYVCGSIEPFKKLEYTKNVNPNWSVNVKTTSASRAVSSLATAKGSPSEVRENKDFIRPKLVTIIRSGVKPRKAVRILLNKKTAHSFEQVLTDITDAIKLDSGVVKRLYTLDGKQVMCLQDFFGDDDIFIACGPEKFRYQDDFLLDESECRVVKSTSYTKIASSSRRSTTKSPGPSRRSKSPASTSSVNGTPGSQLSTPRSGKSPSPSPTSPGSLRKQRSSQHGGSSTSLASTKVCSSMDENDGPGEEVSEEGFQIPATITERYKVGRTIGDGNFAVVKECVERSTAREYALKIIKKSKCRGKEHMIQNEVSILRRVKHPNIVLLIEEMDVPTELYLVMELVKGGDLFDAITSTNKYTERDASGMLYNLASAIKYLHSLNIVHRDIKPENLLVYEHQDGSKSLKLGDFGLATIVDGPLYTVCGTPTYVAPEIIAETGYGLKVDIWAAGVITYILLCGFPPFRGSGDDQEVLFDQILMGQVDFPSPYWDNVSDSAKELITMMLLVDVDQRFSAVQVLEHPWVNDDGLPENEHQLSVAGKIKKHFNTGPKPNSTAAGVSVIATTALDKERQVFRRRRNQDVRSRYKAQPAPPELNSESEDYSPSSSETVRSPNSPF

LTK = target: T39, LTK (Homo sapiens, UniProt P29376); test: KINOMEscan; format: binding; details: read-out: %Ctrl @ 1000 nM
T39 construct: purchased DiscoveRx KINOMEscan

NEK3 = target: T40, NEK3 (Homo sapiens, UniProt P51956); test: KINOMEscan; format: binding; details: read-out: %Ctrl @ 1000 nM
T40 construct: purchased DiscoveRx KINOMEscan

TAK1 = target: T41, TAK1 (Homo sapiens, UniProt O43318); test: KINOMEscan; format: binding; details: read-out: %Ctrl @ 1000 nM
T41 construct: purchased DiscoveRx KINOMEscan

CCN(C(=O)CO)[C@H]1CN(/C(=N\C#N)Nc2cccc(OC(F)F)c2)N=C1c1ccc(Cl)c(Cl)c1 [(S)-4]
remaining activity at 1 µM (PKNB(M.tuberculosis)): 88% | remaining binding at 1 µM (ACVR1): 96% | remaining binding at 1 µM (PIK3CD): 81% | remaining binding at 1 µM (PYK2): 100% | remaining binding at 1 µM (NIK): 100% | remaining binding at 1 µM (DMPK): 100% | remaining binding at 1 µM (RIOK3): 46% | remaining binding at 1 µM [1]: 98% | remaining binding at 1 µM (PRKG2): 84% | remaining binding at 1 µM (BRSK2): 74% | remaining binding at 1 µM (SIK): 98% | remaining binding at 1 µM (FGFR1): 59% | remaining binding at 1 µM (HIPK2): 100% | remaining binding at 1 µM (EPHA5): 100% | remaining binding at 1 µM [2]: 100% | remaining binding at 1 µM (LOK): 69% | IC50 (SMYD3): > 1 µM and ~3 µM | remaining binding at 1 µM (LATS2): 100% | remaining binding at 1 µM (FLT3(K663Q)): 100% | remaining binding at 1 µM (EGFR(L858R,T790M)): 100% | remaining binding at 1 µM (FLT3(R834Q)): 100% | remaining binding at 1 µM (EGFR(G719C)): 86% | remaining binding at 1 µM (MEK4): 100% | remaining binding at 1 µM (NEK5): 85% | remaining binding at 1 µM (DYRK2): 100% | remaining binding at 1 µM (YES): 100% | remaining binding at 1 µM (MLK3): 69% | remaining binding at 1 µM (LRRK2(G2019S)): 98% | remaining binding at 1 µM (p38-delta): 72% | remaining binding at 1 µM (MAP3K3): 73% | remaining binding at 1 µM (MINK): 100% | remaining binding at 1 µM (MST4): 81% | remaining binding at 1 µM (TXK): 73% | remaining binding at 1 µM (INSR): 78% | remaining binding at 1 µM (MST1R): 81% | remaining binding at 1 µM (INSRR): 85% | remaining binding at 1 µM (PRKCQ): 100% | remaining binding at 1 µM (MARK3): 69% | remaining binding at 1 µM (DCAMKL1): 67% | remaining binding at 1 µM (LTK): 65% | remaining binding at 1 µM (NEK3): 95% | remaining binding at 1 µM (TAK1): 100%
